Measured values reported in paper PMC11996864, “A small-molecule inhibitor of BCL10-MALT1 interaction abrogates progression of diffuse large B cell lymphoma” (The Journal of Clinical Investigation, 2025).
Several values for one entry are separate records, joined by “and”; a condition that tells them apart may be missing. Equal entries are not always repeated.

Key:
[1] = tested on: WT C57BL/6 mice; experiment: Flow cytometry of spleen immune cell subsets after 12 days of treatment; format: in vivo, mouse; conditions: 50 mg/kg, vs vehicle, result in words
Procedure: Long-term in vivo toxicity experiments. WT C57/BL6 (The Jackson Laboratory) male and female mice were treated daily with 50 mg/kg M1i-124 or vehicle control for 28 days. At the time of sacrifice, blood was obtained for complete blood count, alanine transaminase, albumin, and total bilirubin (Abaxis). Livers from control and M1i-124 treated mice were collected for H&E analysis.
Flow cytometry. Splenocytes were isolated from WT mice after 12 days of treatment with 50 mg/kg M1i-124 or vehicle control. After obtaining a single cell suspension using […] filter, cells were stained with viability dye (Tonbo Biosciences Ghost Red 780, Fisher Healthcare, Cat #50-105-2988). After blocking with mouse BD Fc BlockTM (BD Biosciences, Cat# 553141), splenocytes were stained with a panel of antibodies including antibodies from Invitrogen (anti-CD3 APC, Cat# […]
0251-82 and anti-NK1.1 PE-Cyanine 7 Cat#25-5941-82), an antibody from BD Bioscience (anti- […]
and anti-CD4 BV711 Cat# 100557). Samples were run on a 5 laser LSR Fortessa flow cytometer and analyzed with FlowJo software.

[2] = tested on: OCI-Ly3 cells; experiment: CellTrace Violet dilution/cell division assay; format: cell-based, human; conditions: OCI-Ly3, 1 μM
Procedure: (§1) Cell proliferation, viability, and apoptosis assays. […]
(§2) CellTrace Violet reagent (ThermoFisher, Cat#
(§3) C34571) was used as a cell division tracking dye for OCI-Ly1, OCI-Ly3, and TMD8 cells treated with 1 μM of compound M1i-124 or DMSO control, where the intensity of the staining decreases with each round of cell division. At days 0 and 6 after staining of DMSO- and compound-treated cells, CellTrace Violet fluorescence was measured on a BD LSR II instrument and Mean Fluorescent Intensity (MFI) was analyzed by FlowJo (version 10.8.0, BD). […]
(§4) For CellTrace Violet, CellTiter-glo, and Annexin V apoptosis assays, cell were cultured in media with 50% of the usual serum. […]

[3] = tested on: TMD8 cells; experiment: CellTrace Violet dilution/cell division assay; format: cell-based, human; conditions: TMD8, 1 μM
Procedure: as §1, §2, §3, §4

[4] = tested on: OCI-Ly1 cells; experiment: CellTrace Violet dilution/cell division assay; format: cell-based, human; conditions: OCI-Ly1, 1 μM
Procedure: as §1, §2, §3, §4

In the case of `O=S(=O)(NCc1ccc2c(c1)OCO2)c1ccc(Cc2ccc(S(=O)(=O)NCc3ccc4c(c3)OCO4)cc2)cc1` [M1i-124], the “percentage of total lymphocytes and specific lymphocyte populations within the spleen” value [1] is reported as “no difference”, the cell division ([2]; 6 days, result in words) is reported as “substantially reduced” and the “CellTrace Violet dilution (Percent of Control)” value ([2]; day 6, 1 µM) is reported as 39.99% of Control and 46.66% of Control and 31.33% of Control and 60.69% of Control. The activity at 1 µM ([3]; Homo sapiens, TMD8, 144 h, day 6, read-out: CellTrace Violet dilution (Percent of Control)) was 42.2%, the cell division ([3]; 6 days, result in words) was “substantially reduced” and the “CellTrace Violet dilution (Percent of Control)” value ([3]; day 6, 1 µM) was 48.11% of Control and 53.597% of Control and 42.644% of Control. The activity at 1 µM ([4]; Homo sapiens, OCI-Ly1, 144 h, day 6, read-out: CellTrace Violet dilution (Percent of Control)) was 73.1%, the cell division ([4]; 6 days, result in words) was “minimal effect” and the “CellTrace Violet dilution (Percent of Control)” value ([4]; day 6, 1 µM) was 82.43% of Control and 74.14% of Control and 90.83% of Control.
